From PMC8482806, “A Novel Blood-Brain Barrier-Permeable Chemotherapeutic Agent for the Treatment of Glioblastoma” (Cureus, 2021)
Read-outs that look alike come from different tables or passages of the source.

Experiments:
[1] = Cytotoxicity in normal human astrocytes (CellTiter-Glo); type: cell-based; conditions: normal human astrocytes (NHA), read-out: LC50
Protocol: In vitro activity of QBS10072S was assessed using a modified clonogenic cell viability assay in 96-well clear-bottom plates. […] For GBM cell lines, 2000 cells/well were plated. On day 2 (GBM) or day 3 (LLC-PK1) after original plating, cells were washed twice with PBS and incubated with 50 μL of various concentrations of QBS10072S in PBS in at least quadruplicate. After 30 minutes at 37°C, 200 μL of growth medium was added to each well. Clonal populations were allowed to grow until the control wells (mock treatment) were near confluence (7 to 10 days). At this point, 170 μL media were removed and 60 μL CellTiter-Glo® (Promega, Madison, WI) were added to each well. Plates were placed on an orbital shaker for three minutes to lyse the cells and then incubated for an additional 10 minutes at RT to stabilize the luminescent signal. Luminescence was recorded using an EnSpire® Multimode Plate Reader (Perkin Elmer). Background (luminescence from wells incubated with 100 μM melphalan or lomustine) was subtracted and data were normalized to the control. EC50s were determined by non-linear regression using GraphPad Prism.
Cells were incubated with a titration of QBS10072S or melphalan and cell viability was measured by CellTiter-Glo. LC50 values for each compound were determined.

[2] = test system: 8MGBA cells; test: Cell viability assay (CellTiter-Glo), 8MGBA; type: cell-based; conditions: Homo sapiens, 8-MG-BA; Cell Line: 8MGBA; read-out: LC50 (μM ± SD)
Protocol: (§1) In vitro activity of QBS10072S was assessed using a modified clonogenic cell viability assay in 96-well clear-bottom plates. For the LLC-PK1 inducible LAT1-expressing cell line, 1000 cells/well were plated and cells were treated with either butyrate alone (non-induced) or with both butyrate and doxycycline (induced) as described above. For GBM cell lines, 2000 cells/well were plated. On day 2 (GBM) or day 3 (LLC-PK1) after original plating, cells were washed twice with PBS and incubated with 50 μL of various concentrations of QBS10072S in PBS in at least quadruplicate. After 30 minutes at 37°C, 200 μL of growth medium was added to each well. Clonal populations were allowed to grow until the control wells (mock treatment) were near confluence (7 to 10 days). At this point, 170 μL media were removed and 60 μL CellTiter-Glo® (Promega, Madison, WI) were added to each well. Plates were placed on an orbital shaker for three minutes to lyse the cells and then incubated for an additional 10 minutes at RT to stabilize the luminescent signal. Luminescence was recorded using an EnSpire® Multimode Plate Reader (Perkin Elmer). Background (luminescence from wells incubated with 100 μM melphalan or lomustine) was subtracted and data were normalized to the control. EC50s were determined by non-linear regression using GraphPad Prism.

[3] = test system: LLC-PK1 inducible LAT1-expressing cell line; test: Modified clonogenic cell viability assay (CellTiter-Glo), LLC-PK1 inducible LAT1-expressing cells; type: cell-based; conditions: for EC50: Sus scrofa, read-out: EC50, suppression of viability
Protocol: as §1

[4] = test system: LN229 intracerebral human GBM xenograft; test: LN229 intracerebral human GBM xenograft in athymic mice (BLI, survival); type: in vivo, mouse; conditions: for median survival time: vehicle 56; for %TGI: day 53, three doses
Protocol: Five-week-old female athymic mice (nu/nu, homozygous: Simonsen Laboratories, Gilroy, CA), housed under aseptic conditions, received intracranial tumor cell injection as previously described and as approved by the University of California San Francisco Institutional Animal Care and Use Committee, Protocol #: AN111064-03. Briefly, mice were anesthetized by intraperitoneal injection of ketamine (100 mg/kg) and xylazine (10 mg/kg) and injected with 3 μL of tumor cell suspension (300,000 cells total) into the right caudate-putamen. Coordinates: 3 mm to the right from bregma, on top of the coronal suture, and 3.5 mm depth. Injection rate: ~30 second/uL. For treatment studies, eight mice were used for each group for LN229 studies and nine mice per group for U251 studies. Treatments began when tumors entered the log-phase of growth as measured by luminescence, for the LN229 experiment on Day 21 and for U251 experiments on Day 14.
Dosing levels and frequency are described in the figure legends.
For bioluminescence imaging (BLI), mice were anesthetized as above, then administered 150 mg/kg of luciferin (D-luciferin potassium salt, Gold Biotechnology, St. Louis, MO) via intraperitoneal injection. Ten minutes after luciferin injection, mice were examined for tumor bioluminescence with an IVIS Lumina imaging station and Living Image software (Caliper Life Sciences, Alameda, CA), and regions of interest were recorded as photons per second per steradian per square cm.

[5] = test system: phosphorylation of H2AX in normal human astrocytes; test: Phosphorylation of γ-H2AX assay (immunoblot), normal human astrocytes; type: cell-based; conditions: NHAs, basal LAT1 undetectable, 16 hours
Protocol: U251 or normal human astrocyte cells were plated in six-well plates and incubated with various concentrations of QBS10072S for 16 hours. Proteins were extracted from cells using cell lysis buffer (Cell Signaling Technologies, Danvers, MA) supplemented with proteinase and a phosSTOP phosphatase inhibitor cocktail (Sigma-Aldrich, St. Louis, MO). Proteins were separated by SDS-PAGE and transferred onto polyvinylidene difluoride membranes, which were then probed with primary antibodies followed by horseradish peroxidase-conjugated secondary antibody, and visualized by ECL (Thermo-Fischer, S. San Francisco, CA). Antibodies specific for γH2AX (#2577), LAT1 (#5347), and beta-actin (#4970) were obtained from Cell Signaling Technologies.

[6] = test system: U87 cells; test: WST1 cell viability assay, U87; type: cell-based; conditions: Homo sapiens, U-87 MG, read-out: LC50 (μM ± SD)
Protocol: In vitro activities of QBS10072S and temozolomide (TMZ) in U87 and U87-MGMT cells were assessed using the WST1 cell viability assay in 96-well plates in which 500/well of cells were plated in sextuplets for each condition. To avoid cell loss, the following washing and medium removing procedures were all done using a P200 pipet without vacuum aspiration. For QBS10072S treatment, cells were washed with PBS the next day and incubated with 50 μL of various concentrations of QBS10072S in PBS for 1 hour at 37°C. After incubation, 150 μL of growth medium was added to each well. The medium was subsequently changed every two days until day 7. For TMZ treatment, cells were treated with 100 μL of various concentrations of TMZ in a growth medium for 2 days. After incubation, cells were put back in a normal growth medium and continued culturing for five days. In the end, 10 μL of WST1 reagent was added to each well and incubated at 37°C for 4h before subjecting to plate reading at 450 nm and 690nm using an EnSpire multimode plate reader (PerkinElmer). Background (OD690nm) was subtracted and data were normalized to the control. LC50s were determined by non-linear regression using GraphPad Prism (GraphPad Software Inc., San Diego, California)

[7] = 2 mg/kg IV once every two weeks
[8] = 4 mg/kg IV once every two weeks
[9] = 8 mg/kg IV once every two weeks

Molecule Cc1ccc(N(CCCl)CCCl)cc1C[C@H](N)CC(=O)O [QBS10072S, (+)-(3S)-amino-4-[5-[bis(2-chloroethyl)amino]-2-methyl-phenyl]butanoic acid] has a CC50 at 30 min [1] of over 10 µM, a CC50 [2] of 34 ± 20 µM and an EC50 ([3]; LLC-PK1, induced, high LAT1 expressing cells) of 1 µM. For the same molecule, the EC50 ([3]; LLC-PK1, non-induced cells, low endogenous LAT1) was 5.5 µM, the “potency induced vs. non-induced cells” value ([3]; high LAT1 vs. non-induced) was 5.5 times and the median survival time [4, 7] was 66.5 days. For the same molecule, the median survival time [4, 8] was 71 days, the median survival time [4, 9] was 74 days and the “%TGI” value [4, 7] was 72%. For the same molecule, the “%TGI” value [4, 8] was 73%, the “%TGI” value [4, 9] was 84% and the “DDR pathway activation (phospho-H2AX)” value [5] was “significantly lower DDR pathway activation”. The CC50 [6] was 14.7 ± 5.3 µM.
